Data from US11840686B2, “Modulation of prekallikrein (PKK) expression” (Ionis Pharmaceuticals, Inc., priority 2013, dated 2023).
Strand notation (5' to 3'): a small letter for the sugar, then the base; units joined by * are phosphorothioate-linked, units joined directly phosphodiester-linked; [ ] holds rarer units or linkages, { } end groups; capitals alone tell only the bases. e = 2'-O-(2-methoxyethyl) (MOE); [5mC] = 5-methylcytosine; d = 2'-deoxy (DNA)

Experiments:
human PKK mRNA [1] = assay: Antisense inhibition of human PKK mRNA in HepaRG cells, 5,000 nM (Example 2); assay type: cell-based
Summary of the method: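 Chimeric MOE gapmers with full phosphorothioate backbones were tested once at 5,000 nM in electroporated HepaRG cells. After about 24 hours, quantitative PCR measured PKK mRNA relative to untreated control cells.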

human PKK mRNA [2] = assay: Dose-dependent antisense inhibition of human PKK in HepaRG cells, 0.19-5.00 uM (Example 5); assay type: cell-based; details: for percent inhibition of PKK mRNA, 0.19 μM: 0.19 μM antisense oligonucleotide; for percent inhibition of PKK mRNA, 0.56 μM: 0.56 μM antisense oligonucleotide; for percent inhibition of PKK mRNA, 1.67 μM: 1.67 μM antisense oligonucleotide; for percent inhibition of PKK mRNA, 5.00 μM: 5.00 μM antisense oligonucleotide
Summary of the method: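 PKK mRNA knockdown was measured by real-time PCR (primer probe set RTS3454) about 16 h after electroporating 20,000 HepaRG cells per well with oligonucleotide at four doses from 0.19 to 5.00 μM. Levels were adjusted to RIBOGREEN-measured total RNA, and IC50 values were calculated.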

[3] = human PKK mRNA, HepaRG cells, 5-10-5 motif oligonucleotides targeting SEQ ID NO: 1 and 10
[4] = HepaRG cells, electroporation, approximately 16 hours, Table 36
[5] = 4 point dose response, HepaRG cells, Table 36
[6] = Table 34, HepaRG, electroporation, ~16 h
[7] = HepaRG cells, electroporation, approximately 16 hours, Table 40
[8] = 4 point dose response, HepaRG cells, Table 40
[9] = HepaRG cells, electroporation, approximately 16 hours, Table 35

For “546894 (eT*e[5mC]*eA*e[5mC]*eT*dG*dT*d[5mC]*d[5mC]*dT*dA*dT*dG*dT*d[5mC]*eA*e[5mC]*eT*eG*eT; antisense) [compound 546894]”, the “% inhibition” value (human PKK mRNA [1]; [3]) was 91%, the “percent inhibition of PKK at 0.19 μM” value (human PKK mRNA [2]; [4]) was 15% and the “percent inhibition of PKK at 0.56 μM” value (human PKK mRNA [2]; [4]) was 47%. The “percent inhibition of PKK at 1.67 μM” value (human PKK mRNA [2]; [4]) was 50%, the “percent inhibition of PKK at 5.00 μM” value (human PKK mRNA [2]; [4]) was 93% and the IC50 (human PKK mRNA [2]; [5]) was 0.9 µM.
“547413 (eG*eT*eG*eA*eA*dA*dA*dA*d[5mC]*dT*dG*dA*d[5mC]*dA*dG*e[5mC]*eG*eA*eA*eT; antisense) [compound 547413]” was tested, and the “% inhibition” value (human PKK mRNA [1]; Table 8, HepaRG cells, electroporation with 5,000 nM antisense oligonucleotide, approx. 24 hours, PKK mRNA by RT-PCR (RTS3454), relative to untreated control cells) was 94%, the “percent inhibition of PKK at 0.19 μM” value (human PKK mRNA [2]; [6]) was 0% and the “percent inhibition of PKK at 0.56 μM” value (human PKK mRNA [2]; [6]) was 0%. The “percent inhibition of PKK at 1.67 μM” value (human PKK mRNA [2]; [6]) was 41%, the “percent inhibition of PKK at 5.00 μM” value (human PKK mRNA [2]; [6]) was 83% and the IC50 (human PKK mRNA [2]; Table 34, PKK mRNA, HepaRG, electroporation, ~16 h) was 2.2 µM.
For “546896 (eG*eT*eA*eT*e[5mC]*dA*d[5mC]*dT*dG*dT*d[5mC]*d[5mC]*dT*dA*dT*eG*eT*e[5mC]*eA*e[5mC]; antisense) [compound 546896]”, the “% inhibition” value (human PKK mRNA [1]; [3]) was 75%, the “percent inhibition of PKK at 0.19 μM” value (human PKK mRNA [2]; [7]) was 0% and the “percent inhibition of PKK at 0.56 μM” value (human PKK mRNA [2]; [7]) was 45%. For the same substance, the “percent inhibition of PKK at 1.67 μM” value (human PKK mRNA [2]; [7]) was 82%, the “percent inhibition of PKK at 5.00 μM” value (human PKK mRNA [2]; [7]) was 97% and the IC50 (human PKK mRNA [2]; [8]) was 0.8 µM. The “percent inhibition of PKK mRNA, 0.19 μM” value (human PKK mRNA [2]; HepaRG cells) was 35%, the “percent inhibition of PKK mRNA, 0.56 μM” value (human PKK mRNA [2]; HepaRG cells) was 60% and the “percent inhibition of PKK mRNA, 1.67 μM” value (human PKK mRNA [2]; HepaRG cells) was 83%. The IC50 (human PKK mRNA [2]; HepaRG cells, 0.19-5.00 μM) was 0.4 µM.
With “547373 (eG*e[5mC]*eA*eG*eA*dT*dG*dG*dT*d[5mC]*d[5mC]*dG*dA*d[5mC]*dA*e[5mC]*eA*e[5mC]*eA*eA; antisense) [compound 547373]” the “% inhibition” value (human PKK mRNA [1]; Table 7, HepaRG cells, electroporation with 5,000 nM antisense oligonucleotide, approx. 24 hours, PKK mRNA by RT-PCR (RTS3454), relative to untreated control cells) was 90%, the “percent inhibition of PKK at 0.19 μM” value (human PKK mRNA [2]; [4]) was 20% and the “percent inhibition of PKK at 0.56 μM” value (human PKK mRNA [2]; [4]) was 7%. The “percent inhibition of PKK at 1.67 μM” value (human PKK mRNA [2]; [4]) was 49%, the “percent inhibition of PKK at 5.00 μM” value (human PKK mRNA [2]; [4]) was 86% and the IC50 (human PKK mRNA [2]; [5]) was 1.1 µM.
“547276 (antisense e[5mC]*eA*eA*eT*eT*dG*d[5mC]*dT*dT*d[5mC]*dT*dT*dG*dG*dA*eG*eG*eT*eG*eA) [compound 547276]” was tested, and the “% inhibition” value (human PKK mRNA [1]; HepaRG cells, electroporation with 5,000 nM antisense oligonucleotide, approximately 24 hours, PKK mRNA by RT-PCR (RTS3454), relative to untreated control cells, Table 5 experiment) was 93%, the “percent inhibition of PKK at 0.19 μM” value (human PKK mRNA [2]; [9]) was 35% and the “percent inhibition of PKK at 0.56 μM” value (human PKK mRNA [2]; [9]) was 44%. The “percent inhibition of PKK at 1.67 μM” value (human PKK mRNA [2]; [9]) was 71%, the “percent inhibition of PKK at 5.00 μM” value (human PKK mRNA [2]; [9]) was 77% and the IC50 (human PKK mRNA [2]; 4 point dose response, HepaRG cells, Table 35) was 0.6 µM. For the same substance, the “percent inhibition of PKK mRNA, 0.19 μM” value (human PKK mRNA [2]; HepaRG cells) was 6%, the “percent inhibition of PKK mRNA, 0.56 μM” value (human PKK mRNA [2]; HepaRG cells) was 3% and the “percent inhibition of PKK mRNA, 1.67 μM” value (human PKK mRNA [2]; HepaRG cells) was 53%. For the same substance, the “percent inhibition of PKK mRNA, 5.00 μM” value (human PKK mRNA [2]; HepaRG cells) was 68% and the IC50 (human PKK mRNA [2]; HepaRG cells, 0.19-5.00 μM) was 2.2 µM.
“547617 (antisense e[5mC]*eT*eG*eT*e[5mC]*d[5mC]*dT*dA*dT*dA*dT*d[5mC]*dA*d[5mC]*dT*eG*eT*eA*e[5mC]*e[5mC]) [compound 547617]” was tested, and the “% inhibition” value (human PKK mRNA [1]; human PKK mRNA in HepaRG cells, 5-10-5 gapmers, Table 14) was 91%, the “percent inhibition of PKK at 0.19 μM” value (human PKK mRNA [2]; [4]) was 52% and the “percent inhibition of PKK at 0.56 μM” value (human PKK mRNA [2]; [4]) was 66%. For the same substance, the “percent inhibition of PKK at 1.67 μM” value (human PKK mRNA [2]; [4]) was 77%, the “percent inhibition of PKK at 5.00 μM” value (human PKK mRNA [2]; [4]) was 93% and the IC50 (human PKK mRNA [2]; [5]) was 0.2 µM. For the same substance, the “percent inhibition of PKK mRNA, 0.19 μM” value (human PKK mRNA [2]; HepaRG cells) was 17%, the “percent inhibition of PKK mRNA, 0.56 μM” value (human PKK mRNA [2]; HepaRG cells) was 37% and the “percent inhibition of PKK mRNA, 1.67 μM” value (human PKK mRNA [2]; HepaRG cells) was 79%. For the same substance, the “percent inhibition of PKK mRNA, 5.00 μM” value (human PKK mRNA [2]; HepaRG cells) was 98% and the IC50 (human PKK mRNA [2]; HepaRG cells, 0.19-5.00 μM) was 0.7 µM.
With “548753 (antisense eT*e[5mC]*eA*e[5mC]*dT*dG*dT*dA*d[5mC]*dT*dA*dG*dT*dT*eT*e[5mC]*e[5mC]*eT) [compound 548753]” the “% inhibition” value (human PKK mRNA [1]; human PKK mRNA, HepaRG cells, 5,000 nM antisense oligonucleotide, Table 18) was 82%, the “percent inhibition of PKK at 0.19 μM” value (human PKK mRNA [2]; [7]) was 0% and the “percent inhibition of PKK at 0.56 μM” value (human PKK mRNA [2]; [7]) was 23%. The “percent inhibition of PKK at 1.67 μM” value (human PKK mRNA [2]; [7]) was 49%, the “percent inhibition of PKK at 5.00 μM” value (human PKK mRNA [2]; [7]) was 84% and the IC50 (human PKK mRNA [2]; [8]) was 1.5 µM.
